Assay results taken from ChEMBL document CHEMBL6109146, “Discovery of New Pyrazolone Carbothioamide Derivatives as Potent Antifungal Agents for the Treatment of Candidiasis and Cryptococcosis” (J Med Chem, 2025).
Calls of active or inactive are those of the source. The rule behind the calls is not given here.

How the values were obtained:
[1] = system: Cryptococcus neoformans; experiment: Antifungal activity against Cryptococcus neoformans H99 assessed as inhibition of fungal growth at 4 microg/ml incubated for 48 hrs by spot-plating assay; type: functional, organism-based; conditions: dose 4.0 µg/ml
[2] = system: Cryptococcus neoformans; experiment: Antifungal activity against Cryptococcus neoformans HN-68 assessed as inhibition of fungal growth incubated for 48 to 72 hrs by microplate reader analysis; type: functional; conditions: time 48-72 hrs
[3] = system: Cryptococcus neoformans; experiment: Upregulation of TRR1 gene expression in Cryptococcus neoformans H99 at 4 microg/ml incubated for 8 hrs by qRT-PCR analysis; type: functional; conditions: dose 4.0 µg/ml
[4] = system: Cryptococcus neoformans; experiment: Antifungal activity against Cryptococcus neoformans H99 assessed as inhibition of fungal growth at <0.0078 microg/ml incubated for 72 hrs by microplate reader analysis; type: functional, organism-based; conditions: dose < 0.0078 µg/ml
[5] = system: Cryptococcus neoformans; experiment: Induction of morphological changes in Cryptococcus neoformans H99 assessed as mitochondrial fragmentation at 4 microg/ml incubated for 8 hrs by transmission electron microscopic analysis; type: functional, organism-based; conditions: dose 4.0 µg/ml
[6] = system: Cryptococcus neoformans; experiment: (§1) Antifungal activity against Cryptococcus neoformans H99 infected in cryptococcosis female ICR mouse model assessed as reduction in vacuolation in brain at 5 mg/kg, ip pre-infected with fungi for 3 hrs followed by compound administration and measured after 5 days by H and E staining based analysis; type: functional, organism-based; conditions: time 5.0 day
[7] = system: Nakaseomyces glabratus; experiment: Induction of ROS accumulation in Candida glabrata 0161 assessed as increase in intracellular ROS level by measuring intense green fluorescence incubated for 24 hrs by DCFH-DA probe based fluorescence microscopic analysis; type: functional, organism-based
[8] = system: Cryptococcus neoformans; experiment: Induction of morphological changes in Cryptococcus neoformans H99 assessed as vacuole fragmentation at 4 microg/ml incubated for 8 hrs by transmission electron microscopic analysis; type: functional, organism-based; conditions: dose 4.0 µg/ml
[9] = system: Cryptococcus neoformans; experiment: Antifungal activity against Cryptococcus neoformans H99 assessed as inhibition of fungal growth at 0.13 microg/ml incubated for 72 hrs by microplate reader analysis relative to control; type: functional
[10] = system: Cryptococcus neoformans; experiment: Antifungal activity against Cryptococcus neoformans H99 assessed as inhibition of fungal growth by measuring fold increase in MIC in presence of 10% serum containing transferrin-bound ferric iron and free iron; type: functional
[11] = system: Candida glabrata; experiment: Binding affinity to Candida glabrata KIX domain assessed as inhibition constant
[12] = system: Cryptococcus neoformans; experiment: as §1, with “cysts formation” for “vacuolation”, “brain cortex” for “brain”; type: functional, organism-based; conditions: time 5.0 day
[13] = system: Cryptococcus neoformans; experiment: (§2) Antifungal activity against Cryptococcus neoformans H99 infected in cryptococcosis female ICR mouse model assessed as dense arrangement of neuronal cells at 20 mg/kg, ip pre-infected with fungi for 3 hrs followed by compound administration and measured after 5 days by H and E staining based analysis; type: functional, organism-based; conditions: time 5.0 day
[14] = system: Candida albicans; experiment: Antifungal activity against Candida albicans 9296 assessed as inhibition of fungal growth incubated for 48 to 72 hrs by microplate reader analysis; type: functional, organism-based; conditions: time 48-72 hrs
[15] = system: Cryptococcus neoformans; experiment: as §2, with “assessed as neat arrangement of” for “assessed as dense arrangement of”, “cells at 5 to 20 mg/kg,” for “cells at 20 mg/kg,”; type: functional, organism-based; conditions: dose 5-20 mg/kg, time 5.0 day
[16] = system: Cryptococcus neoformans; experiment: Antifungal activity against Cryptococcus neoformans H99 assessed as inhibition of fungal growth at 0.031 microg/ml incubated for 72 hrs by microplate reader analysis; type: functional, organism-based; conditions: dose 0.031 µg/ml

With Nc1cc(=O)n(C(=S)Nc2ccc(C3CCCCC3)cc2)[nH]1 the Activity [1] was “Moderate_effect”, the MIC80 [2] was 1.2 10^-4 ug/ml and the Activity [3] was “Active”. The Activity [4] was “Not active; Decrease In Inhibitory Potency Observed”, the Activity [5] was “Active” and the Activity [6] was “Not active; Slight Vacuolation Observed”. The Activity [7] was “Active”, the Activity [8] was “Active” and the inhibition at 0.13 µg/mL [9] was 100%. For the same compound, the “fold change (FC)” value [10] was ~1000, the K [11] was 174 µM and the Activity [12] was “Active”. The Activity [13] was “Active”, the Activity [14] was “Active” and the Activity [15] was “Active”. For the same compound, the Activity [16] was “Active; Significantly Better Inhibitory Effect Observed Than Fluconazole At 8.0 Microg/Ml”.
